Assay results taken from patent publication US20200399238A1, “THERAPEUTIC AURONES” (MIDDLE TENNESSEE STATE UNIVERSITY, priority 2016, published 2020).
Read-outs that look alike come from different tables or passages of the source.

Key:
[1] = system: Leishmania amazonensis promastigotes expressing beta-lactamase; assay: microbe, parasite or virus in culture; type: cell-based; conditions: for IC50: Leishmania amazonensis
[2] = system: Trypanosoma cruzi Tulahuen cells expressing beta-galactosidase; assay: T. cruzi intracellular assay (beta-galactosidase, L6 host cells); conditions: for IC50: Trypanosoma cruzi, TULAHUEN; for Selectivity L6/TC-I: Table 3A
[3] = system: rat skeletal muscle cell line, L6; assay: cells; type: cell-based
[4] = system: Trypanosoma brucei brucei 427 cells; assay: T. brucei culture and assay (PrestoBlue); type: cell-based
[5] = Table 2, L6 IC50 / L. amazonensis IC50
[6] = Table 1, intracellular T. cruzi IC50
[7] = Table 2, L6 IC50 / T. cruzi IC50 (intracellular assay)
[8] = read-out: IC50 T. cruzi, Table 1, intracellular assay, mean of 2(+) trials (^c one trial)
[9] = read-out: IC50 T. cruzi, Table 2, intracellular assay, mean of 2(+) independent trials
[10] = read-out: IC50 TC-I, Table 3B, weighted means of two or more independent trials
[11] = Rattus norvegicus, Table 1, read-out: IC50 Toxicity (L6)
[12] = Rattus norvegicus, Table 3B, weighted means of two or more independent trials, read-out: IC50 L6
[13] = Table 2, mean of 2(+) independent trials, read-out: IC50 T. brucei
[14] = Trypanosoma brucei, Table 1, mean of 2(+) independent trials, read-out: IC50 T. brucei
[15] = estimated from highest L6 dose tested where no L6 IC50
[16] = read-out: IC50 TC-I, Table 3A, weighted means of two or more independent trials
[17] = Rattus norvegicus, Table 3A, weighted means of two or more independent trials, read-out: IC50 L6
[18] = Table 2, L6 mammalian cells, read-out: IC50 Toxicity (L6)
[19] = read-out: IC50 L. amaz. (footnote c: value obtained from one trial)
[20] = Table 2, L6 IC50 / T. brucei IC50
[21] = Table 3A, estimated from highest L6 dose tested where no L6 IC50

SMILES: Cc1[nH]cnc1/C=C1\Oc2ccccc2C1=O [Aurone 9059, (Z)-2-((5-methyl-H-imidazol-4-yl)methylene)benzofuran-3(2H)-one]
- IC50 ([1]; read-out: IC50 L. amaz.): 3.96 µM
- Selectivity L6/La ([1]; Table 1): 80.99
- Selectivity L6/La [1, 5]: 80.99
- melting point: 180 to 183 °C
- selectivity for T. cruzi (L6/Tc) [2]: 61.09
- Selectivity L6/Tc [2, 6]: 61.09
- Selectivity L6/Tc [2, 7]: 61.09
- Selectivity L6/Tc-I ([2]; Table 3B, estimated from highest L6 dose tested where no L6 IC50): 61.09
- IC50 [2, 8]: 5.25 µM
- IC50 [2, 9]: 5.25 µM
- IC50 [2, 10]: 5.25 µM
- IC50 ([2]; read-out: T. cruzi IC50 dose): 5.25 µM
- IC50 [3, 11]: 321 µM
- IC50 [3, 12]: 321 µM
- IC50 [4, 13]: > 50 µM
- IC50 [4, 14]: > 50 µM
- IC50 ([4]; Trypanosoma brucei, read-out: T. brucei IC50 dose): > 50 µM

SMILES: Cc1ccc(/C=C2\Oc3cc(O)ccc3C2=O)cc1 [Aurone 2904, (Z)-6-hydroxy-2-(4-methylbenzylidene)benzofuran-3(2H)-one]
- IC50 ([1]; read-out: IC50 L. amaz.): 5.63 µM
- melting point: 258 to 264 °C
- IC50 [2, 8]: > 50 µM
- IC50 [2, 9]: > 50 µM
- IC50 [3, 11]: 70.3 µM
- IC50 [4, 14]: > 50 µM

SMILES: COc1ccc2c(c1)O/C(=C\c1ccc(Br)cc1)C2=O [Aurone 5005, (Z)-2-(4-bromobenzylidene)-6-methoxybenzofuran-3(2H)-one]
- IC50 ([1]; read-out: IC50 L. amaz.): 14.3 µM
- melting point: 153 °C
- IC50 [2, 8]: > 50 µM
- IC50 [2, 9]: > 50 µM
- IC50 [3, 11]: 181 µM
- IC50 [4, 14]: 47.2 µM

SMILES: O=C1/C(=C/c2cccc(I)c2)Oc2ccccc21 [Aurone 9028, (Z)-2-(3-iodobenzylidene)benzofuran-3(2H)-one]
- IC50 ([1]; read-out: IC50 L. amaz.): 2.61 µM
- Selectivity L6/La ([1]; Table 1): >38.31
- Selectivity L6/La [1, 5]: >38.31
- melting point: 99 to 105 °C
- Selectivity L6/Tc [2, 6]: >13.26
- Selectivity L6/Tc [2, 7]: >13.26
- Selectivity L6/TC-I [2, 15]: >13.26
- IC50 [2, 8]: 7.54 µM
- IC50 [2, 9]: 7.54 µM
- IC50 [2, 16]: 7.54 µM
- IC50 [3, 11]: > 100 µM
- IC50 [3, 17]: > 100 µM
- IC50 [3, 18]: > 100 µM
- IC50 [4, 13]: > 50 µM
- IC50 [4, 14]: > 50 µM

SMILES: O=C1/C(=C/c2cccc(F)c2)Oc2ccccc21 [Aurone 9024, (Z)-2-(3-fluorobenzylidene)benzofuran-3(2H)-one]
- IC50 ([1]; read-out: IC50 L. amaz.): 20.1 µM
- Selectivity L6/La ([1]; Table 1): >4.98
- Selectivity L6/La [1, 5]: >4.98
- melting point: 111 to 113 °C
- Selectivity L6/TC-I [2, 15]: 14.99
- IC50 [2, 8]: 6.67 µM
- IC50 [2, 9]: 6.67 µM
- IC50 [2, 16]: 6.67 µM
- IC50 [3, 11]: > 100 µM
- IC50 [3, 17]: > 100 µM
- IC50 [3, 18]: > 100 µM
- IC50 [4, 13]: > 50 µM
- IC50 [4, 14]: > 50 µM

SMILES: O=C1/C(=C/c2ccccc2Cl)Oc2ccccc21 [Aurone 9007, (Z)-2-(2-chlorobenzylidene)benzofuran-3(2H)-one]
- IC50 ([1]; read-out: IC50 L. amaz.): 17.5 µM
- IC50 [1, 19]: 17.5 µM
- Selectivity L6/La ([1]; Table 1): 13.55
- Selectivity L6/La [1, 5]: 13.55
- melting point: 118 to 126 °C
- Selectivity L6/Tc [2, 6]: 18.72
- Selectivity L6/Tc [2, 7]: 18.72
- Selectivity L6/TC-I [2, 15]: 18.72
- IC50 [2, 8]: 12.7 µM
- IC50 [2, 9]: 12.7 µM
- IC50 [2, 16]: 12.7 µM
- IC50 [3, 11]: 238 µM
- IC50 [3, 17]: 238 µM
- Selectivity L6/Tb ([4]; Table 1): 21.02
- Selectivity L6/Tb [4, 20]: 21.02
- Selectivity L6/Tb [4, 21]: 21.02
- IC50 [4, 14]: 11.3 µM

SMILES: O=C1/C(=C/c2ccc(C(F)(F)F)cc2)Oc2ccccc21 [Aurone 9084, (Z)-2-(4-(trifluoromethyl)benzylidene)benzofuran-3(2H)-one]
- IC50 ([1]; read-out: IC50 L. amaz.): 2.94 µM
- melting point: 98 to 102 °C
- IC50 [2, 8]: 9.38 µM
- IC50 [2, 9]: 9.38 µM
- IC50 [3, 11]: > 400 µM
- IC50 [4, 14]: 20.4 µM

SMILES: O=C1/C(=C/c2ccccc2Br)Oc2ccccc21 [Aurone 9006, (Z)-2-(2-bromobenzylidene)benzofuran-3(2H)-one]
- IC50 ([1]; read-out: IC50 L. amaz.): < 1 µM
- IC50 [1, 19]: < 1 µM
- Selectivity L6/La ([1]; Table 1): >226.08
- Selectivity L6/La [1, 5]: >226.08
- melting point: 134 to 140 °C
- Selectivity L6/Tc [2, 6]: 10.61
- Selectivity L6/Tc [2, 7]: 10.61
- Selectivity L6/TC-I [2, 15]: 10.61
- IC50 [2, 8]: 21.3 µM
- IC50 [2, 9]: 21.3 µM
- IC50 [2, 16]: 21.3 µM
- IC50 [3, 11]: 226 µM
- IC50 [3, 17]: 226 µM
- Selectivity L6/Tb ([4]; Table 1): 7.98
- Selectivity L6/Tb [4, 20]: 7.98
- Selectivity L6/Tb [4, 21]: 7.98
- IC50 [4, 14]: 28.3 µM

SMILES: O=C1/C(=C/c2cc(Br)cs2)Oc2ccccc21 [Aurone 9061, (Z)-2-((4-bromothiophen-2-yl)methylene)benzofuran-3(2H)-one]
- IC50 ([1]; read-out: IC50 L. amaz.): 1.7 µM
- melting point: 125 to 129 °C
- IC50 [2, 8]: > 50 µM
- IC50 [2, 9]: > 50 µM
- IC50 [2, 10]: > 50 µM
- IC50 [3, 11]: > 100 µM
- IC50 [3, 12]: > 100 µM
- IC50 [4, 14]: > 50 µM

SMILES: CCc1ccc(/C=C2\Oc3ccccc3C2=O)cc1 [Aurone 8001, (Z)-2-(4-ethylbenzylidene)benzofuran-3(2H)-one]
- IC50 ([1]; read-out: IC50 L. amaz.): 6.42 µM
- IC50 [1, 19]: 6.42 µM
- melting point: 71 to 74 °C
- IC50 [2, 8]: 11.4 µM
- IC50 [2, 9]: 11.4 µM
- IC50 [3, 11]: > 100 µM
- IC50 [4, 14]: 46.5 µM
